The text below walks through data of US8871796B2, “Diaryl ether derivatives as notch sparing gamma secretase inhibitors” (Merck Sharp & Dohme Corp., priority 2009, dated 2014).

One may read the IC50 as the point on the concentration scale where inhibition reaches its midpoint.

Read-outs that look alike come from different tables or passages of the source.

The assay can be described thus: APP processing: AlphaLisa assay of secreted Aβ40 and Aβ42 from SP4CT cells. In kind it is cell-based. Particulars: Homo sapiens, SH-SY5Y cells expressing amyloid β protein (SP4CT cells). The procedure:
APP Processing (Assay Quantitates Secreted Aβ Analytes from Cell Lines):
The effect of compounds on the abundance of Aβ40 and Aβ42 peptides generated from SH-SY5Y cells expressing amyloid β protein (SP4CT cells) are determined by an AlphaLisa™ assay. Analogous to an ELISA assay, generation of […] AlphaLisa™ assay requires “donor” and “acceptor” beads to be brought in close proximity by specific antibody recognition of either Aβ40 or Aβ42 peptides. The assay is accomplished by removing media from compound-treated SP4CT cells to two different microplates, followed by the addition of donor beads conjugated with streptavidin binding a biotinylated anti-amyloid β monocolonal antibody (clone 4G8). Acceptor beads directly conjugated with anti-Aβ40 monoclonal antibody (G210) are added to one microplate and anti-Aβ42 monoclonal antibody (12F4) acceptor beads were added to the other. Abundance of Aβ40 and Aβ42 is directly proportional to the luminescent signal generated following excitation of donor beads by laser light.
For orientation: In Alpha technology, singlet oxygen from a donor bead excites a nearby acceptor bead.

The mark [1] stands for this setting: read-out: IC50, inhibition of production of Aβ40 peptide.
[2] abbreviates: read-out: IC50, inhibition of production of Aβ42 peptide.

As for `CCn1nc(-c2cccc(C(C)(C)NS(=O)(=O)CC(F)(F)F)c2)cc1Oc1ccc(C(O)C(C)C)cc1` (centres unmarked) [Example 66, N-[1-(3-{1-ethyl-5-[4-(1-hydroxy-2-methylpropyl)phenoxy]-1H-pyrazol-3-yl}phenyl)-1-methylethyl]-2,2,2-trifluoroethanesulfonamide], the IC50 reads like this: under setting [1], under 200 nM; under setting [2], under 200 nM.

On to `O=S(=O)(CC(F)(F)F)NC1(c2cccc(-c3cc(Oc4ccc(C(F)(F)F)cc4)nn3Cc3cocn3)c2)COC1` [Example 135, N-(3-{3-[3-(4-trifluoromethylphenoxy)-1-(1,3-oxazol-4-ylmethyl)-1H-pyrazol-5-yl]phenyl}oxetan-3-yl)-2,2,2-trifluoroethanesulfonamide], for which the concentration for half-maximal inhibition (IC50) was under 200 nM under setting [1] and under 200 nM under setting [2].

For `CCn1nc(-c2cccc(C3(NS(=O)(=O)CC(F)(F)F)CC3)c2)cc1Oc1ccc(C(F)(F)F)nc1` [Example 40, N-{1-[3-(1-ethyl-5-{[6-(trifluoromethyl)pyridin-3-yl]oxy}-1H-pyrazol-3-yl)phenyl]cyclopropyl}-2,2,2-trifluoroethanesulfonamide], the half-inhibitory concentration (IC50) under setting [1] is under 200 nM and the IC50 under setting [2] was under 200 nM.

In the case of `COCCn1nc(-c2cccc(C3(NS(=O)(=O)CC(F)(F)F)COC3)c2)cc1Oc1ccc(C(F)(F)F)cc1` [Example 141, N-(3-{3-[5-(4-trifluoromethylphenoxy)-1-(2-methoxyethyl)-1H-pyrazol-2-yl]phenyl}oxetan-3-yl)-2,2,2-trifluoroethanesulfonamide], the IC50 is under 200 nM under setting [1] and under 200 nM under setting [2].

With `COCCCn1nc(-c2cccc(C3(NS(=O)(=O)CC(F)(F)F)COC3)c2)cc1Oc1ccc(C(F)(F)F)cc1` [Example 142], the half-maximal inhibitory concentration (IC50) is, setting by setting: under setting [1], under 200 nM; under setting [2], under 200 nM.

Consider `CCn1nc(-c2cccc(C(C)(C)NS(=O)(=O)CC(F)(F)F)c2)cc1Oc1ccc(C(O)C(F)(F)F)cc1` (centres unmarked) [Example 71, N-[1-(3-{1-ethyl-5-[4-(2,2,2-trifluoro-1-hydroxyethyl)phenoxy]-1H-pyrazol-3-yl}phenyl)-1-methylethyl]-2,2,2-trifluoroethanesulfonamide], for which the half-inhibitory concentration (IC50) runs as follows: under setting [1], under 200 nM; under setting [2], under 200 nM.

For the compound `CCn1nc(-c2cccc(C(C)(C)NS(=O)(=O)NCC(F)(F)F)c2)cc1Oc1ccc(C(F)(F)F)cc1` [Example 4, N-[1-(3-{1-ethyl-5-[4-(trifluoromethyl)phenoxy]-1H-pyrazol-3-yl}phenyl)-1-methylethyl]-N′-(2,2,2-trifluoroethyl)sulfamide], the IC50 was under 200 nM under setting [1] and under 200 nM under setting [2].

Regarding `CCn1nc(Oc2ccc(F)cc2)cc1-c1cccc(C(C)(C)NS(=O)(=O)NC2CCC2)c1` [Example 54, N-cyclobutyl-N′-(1-{3-[1-ethyl-3-(4-fluorophenoxy)-1H-pyrazol-5-yl]phenyl}-1-methylethyl)sulfamide], the half-maximal inhibitory concentration (IC50) was under 200 nM under setting [1] and under 200 nM under setting [2].

Turning to `CCn1nc(Oc2ccc(C(F)(F)F)cn2)cc1-c1cccc(C2(NS(=O)(=O)CC(F)(F)F)CC2)c1` [Example 32, N-{1-[3-(1-ethyl-3-{[5-(trifluoromethyl)pyridin-2-yl]oxy}-1H-pyrazol-5-yl)phenyl]cyclopropyl}-2,2,2-trifluoroethanesulfonamide], the IC50 is under 200 nM under setting [1] and under 200 nM under setting [2].

Turning to `CCn1nc(-c2cccc(C(C)(C)NS(=O)(=O)NC3CCC3)c2)cc1Oc1ccc(C(F)(F)F)cc1` [Example 3, N-cyclobutyl-N′-[1-(3-{1-ethyl-5-[4-(trifluoromethyl)phenoxy]-1H-pyrazol-3-y}phenyl)-1-methylethyl]sulfamide], the 50% inhibitory concentration (IC50) runs as follows: under setting [1], under 200 nM; under setting [2], under 200 nM.

Take `CCn1nc(-c2cccc(C(C)(C)NS(=O)(=O)CC(F)(F)F)c2)cc1Oc1ccc(C(C)(C)C)cc1` [Example 60, N-(1-{3-[5-(4-tert-butylphenoxy)-1-ethyl-1H-pyrazol-3-yl]phenyl}-1-methylethyl)-2,2,2-trifluoroethanesulfonamide]: the half-inhibitory concentration (IC50) under setting [1] is under 200 nM and the half-inhibitory concentration (IC50) under setting [2] was under 200 nM.

On to `CCn1nc(-c2cccc(C3(NS(=O)(=O)CC(F)(F)F)CCC3)c2)cc1Oc1ccc(C(F)(F)F)cc1` [Example 109, N-[1-(3-{1-ethyl-5-[4-(trifluoromethyl)phenoxy]-1H-pyrazol-3-yl}phenyl)cyclobutyl]-2,2,2-trifluoroethanesulfonamide], for which the IC50 is, setting by setting: under setting [1], under 200 nM; under setting [2], under 200 nM.

Turning to `CCn1nc(-c2cccc(C3(NS(=O)(=O)NC)COC3)c2)cc1Oc1ccc(C(F)(F)F)cc1` [Example 97, N-[3-(3-{1-ethyl-5-[4-(trifluoromethyl)phenoxy]-1H-pyrazol-3-yl}phenyl)oxetan-3-yl]-N′-methylsulfamide], the 50% inhibitory concentration (IC50) runs as follows: under setting [1], under 200 nM; under setting [2], under 200 nM.

In the case of `CCn1nc(-c2cccc(C(C)(C)NS(=O)(=O)N3CCCC3)c2)cc1Oc1ccc(C(F)(F)F)cc1` [Example 11, N-[1-(3-{1-ethyl-5-[4-(trifluoromethyl)phenoxy]-1H-pyrazol-3-yl}phenyl)-1-methylethyl]pyrrolidine-1-sulfonamide], the half-inhibitory concentration (IC50) was under 200 nM under setting [1] and under 200 nM under setting [2].

On to `CCn1nc(-c2cccc(C(C)(C)NS(=O)(=O)NC)c2)cc1Oc1ccc(C(F)(F)F)cc1` [Example 10, N-[1-(3-{1-ethyl-5-[4-(trifluoromethyl)phenoxy]-1H-pyrazol-3-yl}phenyl)-1-methylethyl]-N′-methylsulfamide], for which the half-inhibitory concentration (IC50) reads like this: under setting [1], under 200 nM; under setting [2], under 200 nM.

In the case of `CCn1nc(-c2cccc(C3(NS(=O)(=O)CC(F)(F)F)CC3)c2)cc1Oc1ccc(C(F)(F)F)cn1` [Example 44, N-{1-[3-(1-ethyl-5-{[5-(trifluoromethyl)pyridin-2-yl]oxy}-1H-pyrazol-3-yl)phenyl]cyclopropyl}-2,2,2-trifluoroethanesulfonamide], the half-maximal inhibitory concentration (IC50) is under 200 nM under setting [1] and under 200 nM under setting [2].

Turning to `CCn1nc(-c2cccc(C(C)(C)NS(=O)(=O)CC(F)(F)F)c2)cc1Oc1ccc(CN2CCN(C(C)=O)CC2)cc1` [Example 93, N-{1-[3-(5-{4-[(4-acetylpiperazin-1-yl)methyl]phenoxy}-1-ethyl-1H-pyrazol-3-yl)phenyl]-1-methylethyl}-2,2,2-trifluoroethanesulfonamide], the IC50 is under 200 nM under setting [1] and under 200 nM under setting [2].

As for `CCn1nc(-c2cccc(C(C)(C)NS(=O)(=O)CC(F)(F)F)c2)cc1Oc1ccc(CNCC2CCOCC2)cc1` [Example 91, N-(1-{3-[1-ethyl-5-(4-{[(tetrahydro-2H-pyran-4-ylmethyl)amino]methyl}phenoxy)-1H-pyrazol-3-yl]phenyl}-1-methylethyl)-2,2,2-trifluoroethanesulfonamide], the half-maximal inhibitory concentration (IC50) was under 200 nM under setting [1] and under 200 nM under setting [2].

Regarding `CCn1nc(-c2cccc(C(C)(C)NS(=O)(=O)CC(F)(F)F)c2)c(Cl)c1Oc1ccc(C(F)(F)F)cc1` [Example 112, N-[2-(3-{4-chloro-1-ethyl-5-[4-(trifluoromethyl)phenoxy]-1H-pyrazol-3-yl}phenyl)propan-2-yl]-2,2,2-trifluoroethanesulfonamide], the half-maximal inhibitory concentration (IC50) was under 200 nM under setting [1] and under 200 nM under setting [2].

On to `CCn1nc(-c2cccc(C(C)(C)NS(=O)(=O)CC(F)(F)F)c2)cc1Oc1ccc(CNCc2cccs2)cc1` [Example 88, N-(1-{3-[1-ethyl-5-(4-{[(2-thienylmethyl)amino]methyl}phenoxy)-1H-pyrazol-3-yl]phenyl}-1-methylethyl)-2,2,2-trifluoroethanesulfonamide], for which the IC50 reads like this: under setting [1], under 200 nM; under setting [2], under 200 nM.

Take `CCn1nc(-c2cccc(C(C)(C)NS(=O)(=O)CC(F)(F)F)c2)cc1Oc1ccc(CNCc2cccnc2)cc1` [Example 94, N-(1-{3-[1-ethyl-5-(4-{[(pyridin-3-ylmethyl)amino]methyl}phenoxy)-1H-pyrazol-3-yl]phenyl}-1-methylethyl)-2,2,2-trifluoroethanesulfonamide]: the half-inhibitory concentration (IC50) reads like this: under setting [1], under 200 nM; under setting [2], under 200 nM.

On to `CCn1nc(-c2cccc(C3(NS(=O)(=O)CC(F)(F)F)CC3)n2)cc1Oc1ccc(C(F)(F)F)cc1` [Example 51, N-[1-(6-{1-ethyl-5-[4-(trifluoromethyl)phenoxy]-1H-pyrazol-3-yl}pyridin-2-yl)cyclopropyl]-2,2,2-trifluoroethanesulfonamide], for which the IC50 reads like this: under setting [1], under 200 nM; under setting [2], under 200 nM.

For the compound `CCn1nc(-c2cccc(C(C)(C)NS(=O)(=O)CC(F)(F)F)c2)cc1Oc1ccc(CNCc2ccncc2)cc1` [Example 89, N-(1-{3-[1-ethyl-5-(4-{[(pyridin-4-ylmethyl)amino]methyl}phenoxy)-1H-pyrazol-3-yl]phenyl}-1-methylethyl)-2,2,2-trifluoroethanesulfonamide], the IC50 is under 200 nM under setting [1] and under 200 nM under setting [2].

As for `CCn1nc(-c2cccc(C(C)(C)NS(=O)(=O)CC(F)(F)F)c2)cc1Oc1ccc(CO)cc1` [Example 62, N-[1-(3-{1-ethyl-5-[4-(hydroxymethyl)phenoxy]-1H-pyrazol-3-yl}phenyl)-1-methylethyl]-2,2,2-trifluoroethanesulfonamide], the IC50 is under 200 nM under setting [1] and under 200 nM under setting [2].

`CCn1nc(-c2cccc(C(C)(C)NS(=O)(=O)CC(F)(F)F)c2)cc1Oc1ccc(CNc2ccon2)cc1` [Example 83, N-{1-[3-(1-ethyl-5-{4-[(isoxazol-3-ylamino)methyl]phenoxy}-1H-pyrazol-3-yl)phenyl]-1-methylethyl}-2,2,2-trifluoroethanesulfonamide]: the IC50 runs as follows: under setting [1], under 200 nM; under setting [2], under 200 nM.
